Experimental data reported in PubChem BioAssay AID330 (DTP/NCI, 2004).
Toxic doses and inconclusive results are not listed. Rule for the calls: active = survival T/C of 150% or more; inactive = T/C below 125% in these data.

System: P388 leukemia ip, CD2F1 mice, survival T/C
Experiment: NCI In Vivo Anticancer Drug Screen. Data for tumor model P388 Leukemia (intraperitoneal) in CD2F1 (CDF1) mice
Details: endpoint: median survival time, higher = longer survival
Method in brief: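 Mice carrying the transplanted tumor received test compound or vehicle. Survival was recorded in each group, and the value is the treated-group measurement divided by that of the vehicle-treated control group.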

[1] = dose: 50.0 mg/kg/injection, schedule: Q01DX005 (ip), vehicle: saline
[2] = dose: 25.0 mg/kg/injection, schedule: Q01DX009 (ip), vehicle: Klucel (hydroxypropylcellulose) (HPC)
[3] = dose: 50.0 mg/kg/injection, schedule: Q01DX009 (ip), vehicle: Klucel (hydroxypropylcellulose) (HPC)
[4] = dose: 200.0 mg/kg/injection, schedule: Q01DX009 (ip), vehicle: Klucel (hydroxypropylcellulose) (HPC)
[5] = dose: 50.0 mg/kg/injection, schedule: Q01DX009 (ip), vehicle: saline
[6] = dose: 100.0 mg/kg/injection, schedule: Q01DX009 (ip), vehicle: saline
[7] = dose: 200.0 mg/kg/injection, schedule: Q01DX009 (ip), vehicle: saline
[8] = dose: 100.0 mg/kg/injection, schedule: Q01DX009 (ip), vehicle: Klucel (hydroxypropylcellulose) (HPC)
[9] = dose: 50.0 mg/kg/injection, schedule: Q01DX009 (ip), vehicle: saline with Tween-80
[10] = dose: 60.0 mg/kg/injection, schedule: Q01DX005 (ip), vehicle: Klucel (hydroxypropylcellulose) (HPC)
[11] = dose: 120.0 mg/kg/injection, schedule: Q01DX005 (ip), vehicle: Klucel (hydroxypropylcellulose) (HPC)
[12] = dose: 240.0 mg/kg/injection, schedule: Q01DX005 (ip), vehicle: Klucel (hydroxypropylcellulose) (HPC)

Measured: T/C

O=C(O)C1C2OC(C(Cl)C2Cl)C1C(=O)O (stereo unspecified)
inactive: dose: 15.0 mg/kg/injection, schedule: Q01DX005 (ip), vehicle: saline 97 % of control | dose: 30.0 mg/kg/injection, schedule: Q01DX005 (ip), vehicle: saline 94 % of control | dose: 60.0 mg/kg/injection, schedule: Q01DX005 (ip), vehicle: saline 95 % of control | dose: 120.0 mg/kg/injection, schedule: Q01DX005 (ip), vehicle: saline 87 % of control

CC(ON)C(=O)O (stereo unspecified)
inactive: dose: 6.25 mg/kg/injection, schedule: Q01DX005 (ip), vehicle: saline 96 % of control | dose: 12.5 mg/kg/injection, schedule: Q01DX005 (ip), vehicle: saline 102 % of control | dose: 25.0 mg/kg/injection, schedule: Q01DX005 (ip), vehicle: saline 102 % of control | [1] 99 % of control

O=C(O)c1ccccc1SCCO
inactive: [2] 89 % of control | [3] 91 % of control | [4] 90 % of control

CC1(Cl)CC(C)(/C=C/Cl)C(Br)CC1Cl (stereo unspecified)
inactive: dose: 41.5 mg/kg/injection, schedule: Q01DX005 (ip), vehicle: Klucel (hydroxypropylcellulose) (HPC) 91 % of control | dose: 83.0 mg/kg/injection, schedule: Q01DX005 (ip), vehicle: Klucel (hydroxypropylcellulose) (HPC) 91 % of control | dose: 166.0 mg/kg/injection, schedule: Q01DX005 (ip), vehicle: Klucel (hydroxypropylcellulose) (HPC) 100 % of control

CC1=C(CO)C(=O)OC(C(C)C2CCC3C4CC5OC56C(O)C(N5CCCCCC5)CC(=O)C6(C)C4CCC23C)C1 (stereo unspecified)
inactive: dose: 9.38 mg/kg/injection, schedule: Q01DX005 (ip), vehicle: Klucel (hydroxypropylcellulose) (HPC) 101 % of control | dose: 18.75 mg/kg/injection, schedule: Q01DX005 (ip), vehicle: Klucel (hydroxypropylcellulose) (HPC) 101 % of control | dose: 37.5 mg/kg/injection, schedule: Q01DX005 (ip), vehicle: Klucel (hydroxypropylcellulose) (HPC) 105 % of control | dose: 75.0 mg/kg/injection, schedule: Q01DX005 (ip), vehicle: Klucel (hydroxypropylcellulose) (HPC) 105 % of control | dose: 150.0 mg/kg/injection, schedule: Q01DX005 (ip), vehicle: Klucel (hydroxypropylcellulose) (HPC) 104 % of control

CN(C)C(=O)CC(O)c1ccccc1 (stereo unspecified)
inactive: [1] 102 % of control | dose: 100.0 mg/kg/injection, schedule: Q01DX005 (ip), vehicle: saline 105 % of control | dose: 200.0 mg/kg/injection, schedule: Q01DX005 (ip), vehicle: saline 100 % of control

NC(CCS(=O)(=O)NCCCl)C(=O)O (stereo unspecified)
inactive: dose: 12.5 mg/kg/injection, schedule: Q01DX009 (ip), vehicle: water 103 % of control | dose: 25.0 mg/kg/injection, schedule: Q01DX009 (ip), vehicle: water 105 % of control | dose: 50.0 mg/kg/injection, schedule: Q01DX009 (ip), vehicle: water 104 % of control | dose: 100.0 mg/kg/injection, schedule: Q01DX009 (ip), vehicle: water 102 % of control | dose: 200.0 mg/kg/injection, schedule: Q01DX009 (ip), vehicle: water 105 % of control

Cn1c(=O)c2c(ncn2CCNC(c2ccccc2)c2ccc(Br)cc2)n(C)c1=O (stereo unspecified)
inactive: dose: 6.25 mg/kg/injection, schedule: Q01DX005 (ip), vehicle: alkali diluted with saline 100 % of control | dose: 12.5 mg/kg/injection, schedule: Q01DX005 (ip), vehicle: alkali diluted with saline 96 % of control | dose: 25.0 mg/kg/injection, schedule: Q01DX005 (ip), vehicle: alkali diluted with saline 107 % of control

CC(=O)CCC(=O)CC(=O)CCC(=O)Nc1cc(Cl)ccc1Cl
inactive: dose: 60.0 mg/kg/injection, schedule: Q01DX005 (ip), vehicle: saline with Tween-80 107 % of control | dose: 120.0 mg/kg/injection, schedule: Q01DX005 (ip), vehicle: saline with Tween-80 106 % of control | dose: 240.0 mg/kg/injection, schedule: Q01DX005 (ip), vehicle: saline with Tween-80 101 % of control

O=C1C(Cl)=C(Nc2ccc(C(=O)Nc3ccc4cc(S(=O)(=O)O)cc(S(=O)(=O)O)c4c3)cc2)C(=O)C(Cl)=C1Nc1ccc(C(=O)Nc2ccc3cc(S(=O)(=O)O)cc(S(=O)(=O)O)c3c2)cc1
inactive: [5] 110 % of control | [6] 89 % of control | [7] 103 % of control

C/C(=N\[N+](C)(C)C)c1ccccc1
inactive: dose: 12.5 mg/kg/injection, schedule: Q04DX003 (ip), vehicle: saline with Tween-80 100 % of control | dose: 25.0 mg/kg/injection, schedule: Q04DX003 (ip), vehicle: saline with Tween-80 100 % of control | dose: 50.0 mg/kg/injection, schedule: Q04DX003 (ip), vehicle: saline with Tween-80 102 % of control | dose: 100.0 mg/kg/injection, schedule: Q04DX003 (ip), vehicle: saline with Tween-80 100 % of control

Cc1ccc(S(=O)(=O)N(CCCc2ccccc2)S(=O)(=O)c2ccc(C)cc2)cc1
inactive: [3] 96 % of control | [8] 97 % of control | [4] 100 % of control

Cn1cc(Cl)c2ccccc2c1=O
inactive: dose: 50.0 mg/kg/injection, schedule: Q01DX005 (ip), vehicle: saline with Tween-80 101 % of control | dose: 100.0 mg/kg/injection, schedule: Q01DX005 (ip), vehicle: saline with Tween-80 99 % of control | dose: 200.0 mg/kg/injection, schedule: Q01DX005 (ip), vehicle: saline with Tween-80 100 % of control

O=C(O)CCC(=O)OCCNCCOC(=O)CCC(=O)O
inactive: [5] 92 % of control | [6] 96 % of control | [7] 99 % of control

CCOC(=O)c1ccc(S(C)(=O)=O)cc1
inactive: dose: 25.0 mg/kg/injection, schedule: Q01DX009 (ip), vehicle: saline with Tween-80 104 % of control | [9] 95 % of control | dose: 100.0 mg/kg/injection, schedule: Q01DX009 (ip), vehicle: saline with Tween-80 100 % of control | dose: 200.0 mg/kg/injection, schedule: Q01DX009 (ip), vehicle: saline with Tween-80 100 % of control

O=C1Nc2c(cccc2-c2ccccc2)C(=O)C1(O)c1ccccc1 (stereo unspecified)
inactive: [10] 97 % of control | [11] 94 % of control | [12] 90 % of control

O=C(Nc1ccccc1)P(=O)(O)c1ccccc1
inactive: dose: 12.5 mg/kg/injection, schedule: Q01DX009 (ip), vehicle: Klucel (hydroxypropylcellulose) (HPC) 93 % of control | [2] 100 % of control | [3] 97 % of control | [8] 93 % of control

CC1(C)COC(c2ccc(C(C)(C)C)cc2)=N1
inactive: dose: 3.13 mg/kg/injection, schedule: Q01DX009 (ip), vehicle: saline with Tween-80 105 % of control | dose: 6.25 mg/kg/injection, schedule: Q01DX009 (ip), vehicle: saline with Tween-80 105 % of control | dose: 12.5 mg/kg/injection, schedule: Q01DX009 (ip), vehicle: saline with Tween-80 98 % of control

CCN(CC)C(=O)c1cncc(C(N)=O)c1
inactive: [10] 110 % of control | [11] 111 % of control | [12] 101 % of control

O=C(O)CCCCc1ccc(CCCCC(=O)O)cc1
inactive: dose: 18.75 mg/kg/injection, schedule: Q04DX003 (ip), vehicle: Klucel (hydroxypropylcellulose) (HPC) 106 % of control | dose: 37.5 mg/kg/injection, schedule: Q04DX003 (ip), vehicle: Klucel (hydroxypropylcellulose) (HPC) 111 % of control | dose: 75.0 mg/kg/injection, schedule: Q04DX003 (ip), vehicle: Klucel (hydroxypropylcellulose) (HPC) 113 % of control

COc1cc(/C=N/n2cnnc2)cc(OC)c1OC
inactive: [6] 100 % of control | [7] 108 % of control | dose: 400.0 mg/kg/injection, schedule: Q01DX009 (ip), vehicle: saline 100 % of control

CC(=O)N=c1sccn1CC(=O)c1ccccc1
inactive: dose: 25.0 mg/kg/injection, schedule: Q04DX003 (ip), vehicle: Klucel (hydroxypropylcellulose) (HPC) 119 % of control | dose: 50.0 mg/kg/injection, schedule: Q04DX003 (ip), vehicle: Klucel (hydroxypropylcellulose) (HPC) 96 % of control | dose: 100.0 mg/kg/injection, schedule: Q01DX001 (ip), vehicle: Klucel (hydroxypropylcellulose) (HPC) 100 % of control | dose: 200.0 mg/kg/injection, schedule: Q01DX001 (ip), vehicle: Klucel (hydroxypropylcellulose) (HPC) 100 % of control | dose: 400.0 mg/kg/injection, schedule: Q01DX001 (ip), vehicle: Klucel (hydroxypropylcellulose) (HPC) 101 % of control

O=C(CCN1CCCCC1)c1ccccc1
inactive: dose: 5.0 mg/kg/injection, schedule: Q01DX009 (ip), vehicle: saline 100 % of control | dose: 10.0 mg/kg/injection, schedule: Q01DX009 (ip), vehicle: saline 113 % of control | dose: 20.0 mg/kg/injection, schedule: Q01DX009 (ip), vehicle: saline 109 % of control | [9] 97 % of control
